This note sets out measurements from ChEMBL document CHEMBL4130498, “Synthesis and antibacterial activity of new symmetric polyoxygenated dibenzofurans” (Eur J Med Chem, 2017).

Values after ≈ are worked out from the molar mass of the structure shown. Counter-ions that a name gives are not always drawn.

Data set [1] relates to Saccharomyces cerevisiae. Put plainly: Toxicity in Saccharomyces cerevisiae harboring rad52/rad9 deletion mutant after 24 to 48 hrs by broth microdilution method. In kind it is organism-based. The conditions noted are these: in vivo.
For data set [2], the system named is Saccharomyces cerevisiae. Put plainly: Toxicity in Saccharomyces cerevisiae harboring yap1 deletion mutant after 24 to 48 hrs by broth microdilution method. In kind it is organism-based. The following applies: in vivo.
Data set [3] concerns Staphylococcus aureus. The data set is described as follows: Antibacterial activity against methicillin-resistant vancomycin-intermediate resistant Staphylococcus aureus NRS402 after 24 hrs by broth microdilution method. In kind it is functional. The following applies: NRS402, 24 h.
The test system of the next data set is Enterococcus faecalis. Put plainly: microbe, parasite or virus in culture. The data set is classed as functional. The following applies: ATCC 29212, 24 h.
Data set [4] deals with Staphylococcus aureus. Put plainly: Antibacterial activity against methicillin-sensitive Staphylococcus aureus ATCC 25923 after 24 hrs by broth microdilution method. The conditions noted are these: ATCC 25923, 24 h. The data set is classed as functional.
Data set [5] relates to Saccharomyces cerevisiae. The data set is described as follows: Toxicity in Saccharomyces cerevisiae BY4741 after 24 to 48 hrs by broth microdilution method. The following applies: in vivo. The data set is classed as organism-based.
For data set [6], the system named is Saccharomyces cerevisiae. The data set is described as follows: Toxicity in Saccharomyces cerevisiae harboring mad2 deletion mutant after 24 to 48 hrs by broth microdilution method. The data set is classed as organism-based. The conditions noted are these: in vivo.
In data set [7] the test system is Saccharomyces cerevisiae. The data set is described as follows: Toxicity in Saccharomyces cerevisiae harboring rad52/rad9 deletion mutant assessed as cell growth at 128 uM after 24 to 48 hrs by broth microdilution method relative to control. In kind it is organism-based. The conditions noted are these: in vivo.
Data set [8] concerns Saccharomyces cerevisiae. Put plainly: Toxicity in Saccharomyces cerevisiae harboring yap1 deletion mutant assessed as cell growth at 128 uM after 24 to 48 hrs by broth microdilution method relative to control. In kind it is organism-based. The conditions noted are these: in vivo.
For data set [9], the system named is Saccharomyces cerevisiae. Put plainly: Toxicity in Saccharomyces cerevisiae harboring mad2 deletion mutant assessed as cell growth at 128 uM after 24 to 48 hrs by broth microdilution method relative to control. The data set is classed as organism-based. The conditions noted are these: in vivo.
Data set [10] concerns Saccharomyces cerevisiae. The data set is described as follows: Toxicity in Saccharomyces cerevisiae BY4741 assessed as cell growth at 128 uM after 24 to 48 hrs by broth microdilution method relative to control. The data set is classed as organism-based.

Description for Enterococcus faecalis: Antibacterial activity against Enterococcus faecalis ATCC 29212 after 24 hrs by broth microdilution method

With `Oc1cc(O)c2c(c1)oc1cc(O)cc(O)c12`, the MIC against Saccharomyces cerevisiae [1], against Saccharomyces cerevisiae [2], against Staphylococcus aureus [3], against Enterococcus faecalis, with Staphylococcus aureus [4] and in the data set with Saccharomyces cerevisiae [5] was > 128 µM throughout. For the same molecule, the MIC in the data set on Saccharomyces cerevisiae [6] is > 128 µM.
With `CCC(C)C(=O)c1c(O)cc(O)cc1O` (stereo not given), the MIC in the data set with Saccharomyces cerevisiae [1] was > 128 µM; against Saccharomyces cerevisiae [2], > 128 µM; against Staphylococcus aureus [3] it was 32 µM (≈ 6.73 µg/mL); against Enterococcus faecalis, 64 µM (≈ 13.5 µg/mL); against Staphylococcus aureus [4], 64 µM (≈ 13.5 µg/mL); in the data set on Saccharomyces cerevisiae [5], > 128 µM. In addition, the MIC in the data set on Saccharomyces cerevisiae [6] was > 128 µM.
With `CCC(C)C(=O)c1c(O)cc(O)c2c1oc1c(C(=O)C(C)CC)c(O)cc(O)c12` (stereo not given), the MIC against Saccharomyces cerevisiae [1] is > 128 µM; in the data set on Saccharomyces cerevisiae [2], > 128 µM; in the data set with Staphylococcus aureus [3], 8 µM (≈ 3.2 µg/mL); against Enterococcus faecalis, 32 µM (≈ 12.8 µg/mL); against Staphylococcus aureus [4], 8 µM (≈ 3.2 µg/mL); against Saccharomyces cerevisiae [5], > 128 µM. In addition, in the data set with Saccharomyces cerevisiae [6], the MIC was > 128 µM.
As for `CCC(C)C(=O)c1c(O)cc(O)c(CCC(C)C)c1O` (stereo not given), the MIC in the data set on Saccharomyces cerevisiae [1] was > 128 µM; against Saccharomyces cerevisiae [2] it was > 128 µM; with Staphylococcus aureus [3], 32 µM (≈ 8.97 µg/mL); in the data set with Enterococcus faecalis, 32 µM (≈ 8.97 µg/mL); against Staphylococcus aureus [4], 32 µM (≈ 8.97 µg/mL); against Saccharomyces cerevisiae [5], > 128 µM. In addition, the MIC against Saccharomyces cerevisiae [6] was > 128 µM. Moreover, the Activity in the data set with Saccharomyces cerevisiae [7], in the data set on Saccharomyces cerevisiae [8], in the data set with Saccharomyces cerevisiae [9] and with Saccharomyces cerevisiae [10] was 20 to 40% in each case.
For `CCC(C)C(=O)c1c(O)c(CCC(C)C)c(O)c(-c2c(O)c(CCC(C)C)c(O)c(C(=O)C(C)CC)c2O)c1O` (stereo not given), the MIC was > 128 µM with Saccharomyces cerevisiae [1]; > 128 µM with Saccharomyces cerevisiae [2]; 1 µM (≈ 0.559 µg/mL) in the data set with Staphylococcus aureus [3]; 4 µM (≈ 2.23 µg/mL) against Enterococcus faecalis; 8 µM (≈ 4.47 µg/mL) with Staphylococcus aureus [4]; > 128 µM in the data set on Saccharomyces cerevisiae [5]. Further, the MIC against Saccharomyces cerevisiae [6] is > 128 µM.
As to `CCCc1c(O)c(C(=O)C(C)CC)c(O)c(-c2c(O)c(CCC)c(O)c(C(=O)C(C)CC)c2O)c1O` (stereo not given), the MIC with Saccharomyces cerevisiae [1] was > 128 µM; with Saccharomyces cerevisiae [2], > 128 µM; in the data set with Staphylococcus aureus [3] it was 0.5 µM (≈ 0.251 µg/mL); against Enterococcus faecalis it was 2 µM (≈ 1.01 µg/mL); against Staphylococcus aureus [4], 4 µM (≈ 2.01 µg/mL); in the data set on Saccharomyces cerevisiae [5] it was > 128 µM. Besides, in the data set with Saccharomyces cerevisiae [6], the MIC was > 128 µM.
`CCCc1c(O)cc(O)c(C(=O)C(C)CC)c1O` (stereo not given): the MIC in the data set with Saccharomyces cerevisiae [1] was > 128 µM; against Saccharomyces cerevisiae [2], > 128 µM; against Staphylococcus aureus [3] it was 64 µM (≈ 16.1 µg/mL); in the data set on Enterococcus faecalis it was 64 µM (≈ 16.1 µg/mL); in the data set on Staphylococcus aureus [4] it was 64 µM (≈ 16.1 µg/mL); against Saccharomyces cerevisiae [5], > 128 µM. Further, the MIC in the data set with Saccharomyces cerevisiae [6] was > 128 µM. Also, the Activity in the data set on Saccharomyces cerevisiae [7], in the data set with Saccharomyces cerevisiae [8], with Saccharomyces cerevisiae [9] and in the data set with Saccharomyces cerevisiae [10] was 20 to 40% in each case.
Consider `CCCc1c(O)c(C(=O)C(C)CC)c2oc3c(C(=O)C(C)CC)c(O)c(CCC)c(O)c3c2c1O` (stereo not given), for which the MIC in the data set on Saccharomyces cerevisiae [1] is > 128 µM; with Saccharomyces cerevisiae [2], > 128 µM; with Staphylococcus aureus [3], 0.5 µM (≈ 0.242 µg/mL); against Enterococcus faecalis it was 0.5 µM (≈ 0.242 µg/mL); with Staphylococcus aureus [4], 0.5 µM (≈ 0.242 µg/mL); in the data set on Saccharomyces cerevisiae [5] it was > 128 µM. Further, the MIC in the data set on Saccharomyces cerevisiae [6] is > 128 µM.
With `Cc1onc(-c2ccccc2)c1C(=O)N[C@@H]1C(=O)N2[C@@H]1SC(C)(C)[C@@H]2C(=O)O`, the MIC against Staphylococcus aureus [3] was 150 µM (≈ 60.2 µg/mL); against Enterococcus faecalis, 9.5 µM (≈ 3.81 µg/mL); in the data set on Staphylococcus aureus [4] it was ≤ 0.3 µM.
In the same order, the values of `CN[C@H](CC(C)C)C(=O)N[C@H]1C(=O)N[C@@H](CC(N)=O)C(=O)N[C@H]2C(=O)N[C@H]3C(=O)N[C@H](C(=O)N[C@H](C(=O)O)c4cc(O)cc(O)c4-c4cc3ccc4O)[C@H](O)c3ccc(c(Cl)c3)Oc3cc2cc(c3O[C@@H]2O[C@H](CO)[C@@H](O)[C@H](O)[C@H]2O[C@H]2C[C@](C)(N)[C@H](O)[C@H](C)O2)Oc2ccc(cc2Cl)[C@H]1O` [VANCOMYCIN HYDROCHLORIDE] are 5.5 µM, 1.4 µM and 0.7 µM.
